Experimental findings from BindingDB's records for patent US20250243194 (Adorx Therapeutics, 2025) are described below.

Structures are written as SMILES.

Broadly, the Ki is a dissociation constant, usually derived from enzyme kinetics or from competition with a known ligand.

Holding throughout (experiment): Adenosine Receptor Time-Resolved Fluorescence Resonance Energy Transfer (TRFRET) Binding Assay
For orientation: Time-resolved FRET reads energy transfer from a long-lived donor to a nearby acceptor.

One experiment concerns the target Adenosine receptor A2a (Homo sapiens, UniProt P29274). On the procedure: (§1) All FRET binding experiments were conducted at room temperature in white 384-well plates, in assay binding buffer containing 1× LabMed (Cisbio, France), 100 μg/mL saponin, 1% DMSO and 0.02% pluronic acid. Binding of the fluorescently labelled Adenosine receptor antagonist XAC (CA200645, FRET acceptor) to terbium-labelled A1, A2a, A2b and A3 adenosine receptors (FRET donors) was detected by time-resolved FRET due to the close proximity of the donor and acceptor in a binding event. To investigate the ability of unlabelled test compounds to bind to Adenosine A1, A2a, A2b and A3 receptors, dose response curves were constructed that determined the ability of a range of concentrations to inhibit the binding of 30 nM CA200645 to the A2b receptor and 100 nM CA200645 to the A1, A2a, and A3 receptor.Serial dilution (1:3 dilutions) of test compounds in neat DMSO and transfer of a 400 nL sample of test compound into the assay plate was carried out using the Mosquito (TTP Labtech, UK). The compound samples were incubated for 2 hours at room temperature with a fixed concentration of CA200645 defined for each receptor (see above) and CHO cell membranes containing the human Adenosine A1 (0.5 μg/well), A2a (0.3 μg/well), A2b (1 μg/well) or A3 (1 μg/well) receptor in 40 μL of assay buffer. Total and non-specific binding of CA200645 was determined in the absence and presence of 10 μM XAC, respectively. Following 2 hours incubation, the level of CA200645 binding was detected on a Pherastar FSX (BMG Labtech, Germany) using standard TR-FRET settings.

The target of the next experiment is T1, Adenosine receptor A2b (Homo sapiens, UniProt P29275).
T1 sequence (P29275 whole entry): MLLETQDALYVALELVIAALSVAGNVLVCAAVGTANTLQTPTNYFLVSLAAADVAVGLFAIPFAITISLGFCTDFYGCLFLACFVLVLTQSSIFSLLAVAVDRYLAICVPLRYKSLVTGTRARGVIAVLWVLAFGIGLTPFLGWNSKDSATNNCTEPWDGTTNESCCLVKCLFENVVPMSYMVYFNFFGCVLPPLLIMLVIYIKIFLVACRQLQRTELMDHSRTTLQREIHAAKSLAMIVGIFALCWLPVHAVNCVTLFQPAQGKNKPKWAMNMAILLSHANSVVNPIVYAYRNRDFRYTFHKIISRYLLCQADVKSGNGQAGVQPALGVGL
The protocol:
as §1

The target of the next experiment is T2, Adenosine receptor A1 (Homo sapiens, UniProt P30542).
T2 sequence (P30542 whole entry): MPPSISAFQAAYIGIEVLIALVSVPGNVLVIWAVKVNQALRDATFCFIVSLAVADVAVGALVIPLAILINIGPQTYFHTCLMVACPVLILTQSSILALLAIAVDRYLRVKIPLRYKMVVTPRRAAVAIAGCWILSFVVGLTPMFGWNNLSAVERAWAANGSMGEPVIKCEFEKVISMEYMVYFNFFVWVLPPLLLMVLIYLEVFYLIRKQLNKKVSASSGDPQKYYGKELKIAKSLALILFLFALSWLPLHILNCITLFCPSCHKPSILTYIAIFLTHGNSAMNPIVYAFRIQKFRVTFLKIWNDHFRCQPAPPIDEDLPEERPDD
On the procedure:
as §1

A further experiment deals with T3, Adenosine receptor A3 (Homo sapiens, UniProt P0DMS8).
T3 sequence (P0DMS8 whole entry): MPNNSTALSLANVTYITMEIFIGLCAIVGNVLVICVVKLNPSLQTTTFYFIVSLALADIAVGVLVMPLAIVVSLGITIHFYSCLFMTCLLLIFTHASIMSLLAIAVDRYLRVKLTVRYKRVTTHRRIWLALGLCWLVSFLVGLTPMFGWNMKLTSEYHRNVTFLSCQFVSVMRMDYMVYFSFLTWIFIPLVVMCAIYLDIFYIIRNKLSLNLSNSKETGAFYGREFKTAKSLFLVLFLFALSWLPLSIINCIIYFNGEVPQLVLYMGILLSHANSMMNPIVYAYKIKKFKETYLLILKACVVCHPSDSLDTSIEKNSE
The protocol:
as §1

Adenosine receptor A2a, sequence (P29274 whole entry): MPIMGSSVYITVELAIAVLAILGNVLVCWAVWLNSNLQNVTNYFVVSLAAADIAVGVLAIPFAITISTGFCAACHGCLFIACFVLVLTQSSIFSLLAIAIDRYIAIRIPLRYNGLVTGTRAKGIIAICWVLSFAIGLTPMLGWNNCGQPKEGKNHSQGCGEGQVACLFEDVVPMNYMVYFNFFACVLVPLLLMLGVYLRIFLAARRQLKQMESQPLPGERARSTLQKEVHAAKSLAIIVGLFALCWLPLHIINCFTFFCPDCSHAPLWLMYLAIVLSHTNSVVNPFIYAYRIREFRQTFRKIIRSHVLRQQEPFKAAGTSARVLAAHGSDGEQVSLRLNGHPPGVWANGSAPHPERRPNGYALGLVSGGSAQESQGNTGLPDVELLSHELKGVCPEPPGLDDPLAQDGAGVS

With `Cc1ncnc2ccc(-c3sc(NC(=O)N4CCNCC4)nc3-c3cccc(C#N)c3)cc12` [US20250243194, Example 7.21], the Ki stood at 0.3 nM on Adenosine receptor A2a, 1.6 nM on Adenosine receptor A2b and 9 nM on Adenosine receptor A1.
For the molecule `Cn1cc(-c2sc(NC(=O)N3CC4(COC4)C3)nc2-c2cccc(C#N)c2)c2cccnc21` [US20250243194, Example 16], the Ki on Adenosine receptor A2a stood at 5.17 nM; on Adenosine receptor A2b, 9.8 nM; at Adenosine receptor A3 it was 2130 nM; at Adenosine receptor A1, 122 nM.
In the case of `Cc1ncnc2ccc(-c3sc(NC(=O)N4C[C@@H]5OCCN(C)[C@@H]5C4)nc3-c3cccc(C#N)c3)cc12` [US20250243194, Example 7.20], the values for the inhibition constant Ki on Adenosine receptor A2a, on Adenosine receptor A2b and at Adenosine receptor A1 were 0.2 nM, 1.4 nM and 57 nM, respectively.
As to `Cc1ccnc2ccc(-c3sc(NC(=O)N4CC5(COC5)C4)nc3-c3cccc(C#N)c3)cc12` [US20250243194, Example 11], the Ki at Adenosine receptor A2a was 0.04 nM; at Adenosine receptor A2b, 0.5 nM; at Adenosine receptor A1, 0.4 nM.
Consider `Cc1ncnc2ccc(-c3sc(NC(=O)N4CCN(C)CC4)nc3-c3cccc(C#N)c3)cc12` [US20250243194, Example 7.22], for which the Ki at Adenosine receptor A2a came to 0.42 nM; on Adenosine receptor A2b, 3 nM; at Adenosine receptor A1, 20 nM.
Taken in the same sequence, the figures for `Cc1ncnc2ccc(-c3sc(NC(=O)N4CCC(N(C)C)CC4)nc3-c3cccc(C#N)c3)cc12` [US20250243194, Example 7.6] were 0.55 nM, 2.5 nM and 62 nM.
As for `COc1ncnc2ccc(-c3sc(NC(=O)N4CC5(COC5)C4)nc3-c3cccc(C#N)c3)cc12` [US20250243194, Example 12], the figures for the Ki on Adenosine receptor A2a, at Adenosine receptor A2b and on Adenosine receptor A1 were 0.17 nM, 0.8 nM and 0.2 nM, respectively.
